Reference: ChEMBL document CHEMBL6087487, “Discovery of a 2'-α-Fluoro-2'-β-C-(fluoromethyl) Purine Nucleotide Prodrug as a Potential Oral Anti-SARS-CoV-2 Agent” (J Med Chem, 2025)
Activity calls are given as the source filed them. No cut-off for these calls is given here.

How the values were obtained:
[1] = Cytotoxicity against HPAEpiC cells incubated for 72 hrs by CCK8 assay; type: toxicity, cell-based; conditions: human
Vero C1008 = experiment: Cytotoxicity against African green monkey Vero E6 cells at 100 uM incubated for 72 hrs by CCK8 assay; type: toxicity, cell-based; conditions: chlorocebus sabaeus, vero c1008, 72 h
[2] = target: Nucleoprotein (Severe acute respiratory syndrome coronavirus 2) (UniProt P0DTC9); experiment: Inhibition of SARS-CoV-2 N protein by Western blot analysis; conditions: dose 1-250 nM
SARS-CoV-2 = experiment: Antiviral activity against SARS-CoV-2 Omicron BA.5 infected in K18-hACE2 transgenic mouse assessed as protection against viral infection compound administered 2 hrs post-infection and continued till 7 days post-infection; type: functional, organism-based; conditions: Severe acute respiratory syndrome coronavirus 2, dose 20-60 mg/kg, time 166.0 hrs
[3] = Toxicity in K18-hACE2 transgenic mouse infected with SARS-CoV-2 Omicron BA.5 assessed as body weight change at 40 to 60 mg/kg compound administered 2 hrs post-infection and continued till 7 days post-infection; type: organism-based; conditions: in vivo, 166 h, dose 40-60 mg/kg
[4] = Toxicity in K18-hACE2 transgenic mouse infected with SARS-CoV-2 Omicron BA.5 assessed as animal survival at 40 to 60 mg/kg compound administered 2 hrs post-infection and continued till 7 days post-infection; type: organism-based; conditions: in vivo, 166 h, dose 40-60 mg/kg
[5] = Toxicity in K18-hACE2 transgenic mouse infected with SARS-CoV-2 Omicron BA.5 assessed as animal survival at 20 mg/kg compound administered 2 hrs post-infection and continued till 7 days post-infection; type: organism-based; conditions: in vivo, 166 h
[6] = Acute toxicity in Sprague-Dawley rat assessed as animal mortality at 500 to 2000 mg/kg, po measured for 14 days; type: organism-based; conditions: in vivo, 336 h, dose 500-2000 mg/kg, time 14 day
[7] = Acute toxicity in Sprague-Dawley rat assessed as side effects at 500 to 2000 mg/kg, po measured for 14 days; type: organism-based; conditions: in vivo, 336 h, dose 500-2000 mg/kg, time 14 day
[8] = Acute toxicity in Sprague-Dawley rat assessed as body weight change at 500 to 2000 mg/kg, po measured for 14 days; type: organism-based; conditions: in vivo, 336 h, dose 500-2000 mg/kg, time 14 day
[9] = Acute toxicity in Sprague-Dawley rat assessed as hematological change at 500 to 2000 mg/kg, po measured for 14 days; type: organism-based; conditions: in vivo, 336 h, dose 500-2000 mg/kg, time 14 day
[10] = Acute toxicity in Sprague-Dawley rat assessed as blood biochemical change at 500 to 2000 mg/kg, po measured for 14 days; type: organism-based; conditions: in vivo, 336 h, dose 500-2000 mg/kg, time 14 day
[11] = Acute toxicity in Sprague-Dawley rat assessed as damage in heart at 500 to 2000 mg/kg, po measured for 14 days by H and E staining based analysis; type: organism-based; conditions: in vivo, 336 h, dose 500-2000 mg/kg, time 14 day
[12] = Acute toxicity in Sprague-Dawley rat assessed as damage in liver at 500 to 2000 mg/kg, po measured for 14 days by H and E staining based analysis; type: organism-based; conditions: in vivo, 336 h, dose 500-2000 mg/kg, time 14 day
[13] = Acute toxicity in Sprague-Dawley rat assessed as damage in spleen at 500 to 2000 mg/kg, po measured for 14 days by H and E staining based analysis; type: organism-based; conditions: in vivo, 336 h, dose 500-2000 mg/kg, time 14 day
[14] = Acute toxicity in Sprague-Dawley rat assessed as damage in lung at 500 to 2000 mg/kg, po measured for 14 days by H and E staining based analysis; type: organism-based; conditions: in vivo, 336 h, dose 500-2000 mg/kg, time 14 day
[15] = Acute toxicity in Sprague-Dawley rat assessed as damage in kidney at 500 to 2000 mg/kg, po measured for 14 days by H and E staining based analysis; type: organism-based; conditions: in vivo, 336 h, dose 500-2000 mg/kg, time 14 day
[16] = Acute toxicity in Sprague-Dawley rat assessed as drug tolerance upto 2000 mg/kg, po measured for 14 days; type: organism-based; conditions: in vivo, 336 h, time 14 day
[17] = Prodrug conversion in Sprague-Dawley rat assessed as half life of nucleoside triphosphate at 40 mg/kg, po measured after 0.5 to 24 hrs by LC-MS/MS analysis; type: ADME, organism-based; conditions: in vivo, time 0.5-24 hrs
[18] = Prodrug conversion in Sprague-Dawley rat assessed as Tmax of nucleoside triphosphate at 40 mg/kg, po measured after 0.5 to 24 hrs by LC-MS/MS analysis; type: ADME, organism-based; conditions: in vivo, time 0.5-24 hrs
[19] = Prodrug conversion in Sprague-Dawley rat assessed as Cmax of nucleoside triphosphate at 40 mg/kg, po measured after 0.5 to 24 hrs by LC-MS/MS analysis; type: ADME, organism-based; conditions: in vivo, time 0.5-24 hrs
[20] = Prodrug conversion in Sprague-Dawley rat assessed as AUClast of nucleoside triphosphate at 40 mg/kg, po measured after 0.5 to 24 hrs by LC-MS/MS analysis; type: ADME, organism-based; conditions: in vivo, time 0.5-24 hrs
[21] = Prodrug conversion in Sprague-Dawley rat assessed as AUC (0 to infinity) of nucleoside triphosphate at 40 mg/kg, po measured after 0.5 to 24 hrs by LC-MS/MS analysis; type: ADME, organism-based; conditions: in vivo, time 0.5-24 hrs
[22] = system: Severe acute respiratory syndrome coronavirus 2; experiment: Inhibition of SARS-CoV-2 central replication transcription complex of nsp12/nsp7/nsp8(2) using RNA template as substrate assessed as decrease in RdRp polymerization at 3 mM pretreated for 10 mins followed by NTP addition measured after 20 mins by RNA extension assay relative to control; conditions: time 30.0 min
[23] = system: Severe acute respiratory syndrome coronavirus 2; experiment: Inhibition of SARS-CoV-2 central replication transcription complex of nsp12/nsp7/nsp8(2) using RNA template as substrate assessed as decrease in RdRp polymerization at 62.5 to 1000 uM by RNA extension assay; conditions: dose 62.5-1000 µM
[24] = Cytotoxicity against African green monkey Vero E6 cells incubated for 72 hrs by CCK8 assay; type: toxicity, cell-based, Vero C1008; conditions: chlorocebus sabaeus

## CNc1nc(N)nc2c1ncn2[C@@H]1O[C@H](CO[P@@](=O)(N[C@@H](C)C(=O)OC(C)C)Oc2ccccc2)[C@@H](O)[C@]1(F)CF.O=S(=O)(O)O
[1]
  CC50 at 72 h: > 200 µM
Vero C1008
  Activity: Non-toxic
[2]
  inhibition: Dose-dependent-effect
SARS-CoV-2
  Activity: Dose-dependent-effect
[3]
  Activity: Non-toxic
[4]
  Survival: 100%
[5]
  Survival: > 50%
[6]
  Activity: Non-toxic
[7]
  Activity: Non-toxic
[8]
  Activity: Non-toxic
[9]
  Activity: Non-toxic
[10]
  Activity: Non-toxic
[11]
  Activity: Non-toxic
[12]
  Activity: Non-toxic
[13]
  Activity: Non-toxic
[14]
  Activity: Non-toxic
[15]
  Activity: Non-toxic
[16]
  Activity: Non-toxic
[17]
  t1/2: 45.7 h
[18]
  Tmax: 2.67 h
[19]
  Cmax: 6.5 µg/g
[20]
  AUClast: 66.13 µg·h/g
[21]
  AUC: 223 µg·h/g

## CNc1nc(N)nc2c1ncn2[C@@H]1O[C@H](COP(=O)(O)OP(=O)(O)OP(=O)(O)OP(=O)(O)O)[C@@H](O)[C@]1(F)CF
[22]
  inhibition: 100%
[23]
  inhibition: inactive

## CCC(CC)COC(=O)[C@H](C)N[P@](=O)(OC[C@H]1O[C@@](C#N)(c2ccc3c(N)ncnn23)[C@H](O)[C@@H]1O)Oc1ccccc1 [REMDESIVIR]
[24]
  CC50 at 72 h: 42 µM
